According to ChEMBL document CHEMBL4507282, “Data for DCP probe BI-1950” (2021):

How the values were obtained:
[1] = biological target: RAC-alpha serine/threonine-protein kinase (Homo sapiens) (UniProt P31749); conditions: Compound concentration 1000.0 nM
[2] = biological target: 5'-AMP-activated protein kinase catalytic subunit alpha-2 (Homo sapiens) (UniProt P54646); conditions: Compound concentration 1000.0 nM
[3] = biological target: Calcium/calmodulin-dependent protein kinase type 1G (Homo sapiens) (UniProt Q96NX5); conditions: Compound concentration 1000.0 nM
[4] = biological target: Calcium/calmodulin-dependent protein kinase type II subunit gamma (Homo sapiens) (UniProt Q13555); conditions: Compound concentration 1000.0 nM
[5] = biological target: Calcium/calmodulin-dependent protein kinase kinase 1 (Homo sapiens) (UniProt Q8N5S9); conditions: Compound concentration 1000.0 nM
[6] = biological target: Calcium/calmodulin-dependent protein kinase kinase 2 (Homo sapiens) (UniProt Q96RR4); conditions: Compound concentration 1000.0 nM
[7] = biological target: Cyclin-dependent kinase 4 (Homo sapiens) (UniProt P11802); conditions: Compound concentration 1000.0 nM
[8] = biological target: Serine/threonine-protein kinase Chk2 (Homo sapiens) (UniProt O96017); conditions: Compound concentration 1000.0 nM
[9] = test system: Epidermal growth factor receptor (Homo sapiens), P00533 [G719S]; conditions: Compound concentration 1000.0 nM
[10] = test system: Epidermal growth factor receptor (Homo sapiens), P00533 [L858R]; conditions: Compound concentration 1000.0 nM
[11] = biological target: Ephrin type-A receptor 5 (Homo sapiens) (UniProt P54756); conditions: Compound concentration 1000.0 nM
[12] = biological target: Tyrosine-protein kinase Fes/Fps (Homo sapiens) (UniProt P07332); conditions: Compound concentration 1000.0 nM
[13] = biological target: Fibroblast growth factor receptor 4 (Homo sapiens) (UniProt P22455); conditions: Compound concentration 1000.0 nM
[14] = test system: Receptor-type tyrosine-protein kinase FLT3 (Homo sapiens), P36888 [D835V]; conditions: Compound concentration 1000.0 nM
[15] = test system: Receptor-type tyrosine-protein kinase FLT3 (Homo sapiens), P36888 [UNDEFINED MUTATION]; conditions: Compound concentration 1000.0 nM
[16] = biological target: Homeodomain-interacting protein kinase 4 (Homo sapiens) (UniProt Q8NE63); conditions: Compound concentration 1000.0 nM
[17] = biological target: Insulin receptor-related protein (Homo sapiens) (UniProt P14616); conditions: Compound concentration 1000.0 nM
[18] = biological target: Interleukin-1 receptor-associated kinase 4 (Homo sapiens) (UniProt Q9NWZ3); conditions: Compound concentration 1000.0 nM
[19] = biological target: Tyrosine-protein kinase ITK/TSK (Homo sapiens) (UniProt Q08881); conditions: Compound concentration 1000.0 nM
[20] = biological target: Mitogen-activated protein kinase kinase kinase kinase 3 (Homo sapiens) (UniProt Q8IVH8); conditions: Compound concentration 1000.0 nM
Mitogen-activated protein kinase kinase kinase kinase 3 (Homo sapiens), sequence (Q8IVH8 whole entry): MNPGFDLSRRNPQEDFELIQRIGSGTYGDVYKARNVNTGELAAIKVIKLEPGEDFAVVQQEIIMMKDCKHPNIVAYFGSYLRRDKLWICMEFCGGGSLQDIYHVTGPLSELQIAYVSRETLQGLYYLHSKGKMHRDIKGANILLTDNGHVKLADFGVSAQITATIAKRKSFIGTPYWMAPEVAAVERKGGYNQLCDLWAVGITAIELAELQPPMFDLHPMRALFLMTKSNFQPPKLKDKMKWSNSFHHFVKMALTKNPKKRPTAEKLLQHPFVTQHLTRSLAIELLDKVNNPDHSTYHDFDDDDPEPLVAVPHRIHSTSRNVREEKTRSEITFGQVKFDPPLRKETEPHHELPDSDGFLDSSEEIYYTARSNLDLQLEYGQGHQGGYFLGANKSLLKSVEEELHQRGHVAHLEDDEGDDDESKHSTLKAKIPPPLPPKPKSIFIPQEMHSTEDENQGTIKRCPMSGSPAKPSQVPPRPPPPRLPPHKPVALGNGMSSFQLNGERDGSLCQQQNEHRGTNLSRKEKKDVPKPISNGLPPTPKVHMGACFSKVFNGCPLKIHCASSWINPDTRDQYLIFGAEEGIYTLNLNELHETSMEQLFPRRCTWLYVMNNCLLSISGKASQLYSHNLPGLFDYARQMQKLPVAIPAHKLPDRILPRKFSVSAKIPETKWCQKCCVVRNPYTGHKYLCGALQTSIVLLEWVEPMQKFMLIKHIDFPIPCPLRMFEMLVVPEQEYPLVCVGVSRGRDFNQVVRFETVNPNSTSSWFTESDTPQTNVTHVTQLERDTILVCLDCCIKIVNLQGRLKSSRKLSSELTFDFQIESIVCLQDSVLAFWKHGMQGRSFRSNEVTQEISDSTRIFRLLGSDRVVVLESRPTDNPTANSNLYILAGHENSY

[21] = biological target: Serine/threonine-protein kinase MARK2 (Homo sapiens) (UniProt Q7KZI7); conditions: Compound concentration 1000.0 nM
[22] = biological target: Serine/threonine-protein kinase MRCK beta (Homo sapiens) (UniProt Q9Y5S2); conditions: Compound concentration 1000.0 nM
[23] = biological target: Myosin light chain kinase 2, skeletal/cardiac muscle (Homo sapiens) (UniProt Q9H1R3); conditions: Compound concentration 1000.0 nM
[24] = biological target: Serine/threonine-protein kinase 38-like (Homo sapiens) (UniProt Q9Y2H1); conditions: Compound concentration 1000.0 nM
Serine/threonine-protein kinase 38-like (Homo sapiens), sequence (Q9Y2H1 2-464 limits assumed): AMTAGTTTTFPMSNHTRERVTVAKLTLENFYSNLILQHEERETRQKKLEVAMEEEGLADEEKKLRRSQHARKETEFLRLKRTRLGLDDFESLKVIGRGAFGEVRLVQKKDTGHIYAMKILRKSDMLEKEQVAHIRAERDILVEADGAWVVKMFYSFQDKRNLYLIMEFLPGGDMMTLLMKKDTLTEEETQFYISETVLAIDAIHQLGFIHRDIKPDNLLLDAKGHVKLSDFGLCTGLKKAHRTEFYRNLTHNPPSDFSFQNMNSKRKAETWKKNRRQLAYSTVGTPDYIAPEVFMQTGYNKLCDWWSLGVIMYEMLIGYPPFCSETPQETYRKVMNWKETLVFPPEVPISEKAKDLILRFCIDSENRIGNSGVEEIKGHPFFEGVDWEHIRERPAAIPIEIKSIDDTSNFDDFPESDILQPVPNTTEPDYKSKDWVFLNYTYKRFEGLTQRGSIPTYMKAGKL

[25] = biological target: Serine/threonine-protein kinase Nek6 (Homo sapiens) (UniProt Q9HC98); conditions: Compound concentration 1000.0 nM
[26] = biological target: Cyclin-dependent kinase 2 homolog (Plasmodium falciparum (isolate 3D7)) (UniProt P61075); conditions: Compound concentration 1000.0 nM
[27] = test system: Phosphatidylinositol 4,5-bisphosphate 3-kinase catalytic subunit alpha isoform (Homo sapiens), P42336 [E545K]; conditions: Compound concentration 1000.0 nM
[28] = biological target: Serine/threonine-protein kinase D1 (Homo sapiens) (UniProt Q15139); conditions: Compound concentration 1000.0 nM
[29] = test system: Proto-oncogene tyrosine-protein kinase receptor Ret (Homo sapiens), P07949 [V804L]; conditions: Compound concentration 1000.0 nM
Proto-oncogene tyrosine-protein kinase receptor Ret (Homo sapiens), P07949 [V804L], sequence (P07949 whole entry V804L): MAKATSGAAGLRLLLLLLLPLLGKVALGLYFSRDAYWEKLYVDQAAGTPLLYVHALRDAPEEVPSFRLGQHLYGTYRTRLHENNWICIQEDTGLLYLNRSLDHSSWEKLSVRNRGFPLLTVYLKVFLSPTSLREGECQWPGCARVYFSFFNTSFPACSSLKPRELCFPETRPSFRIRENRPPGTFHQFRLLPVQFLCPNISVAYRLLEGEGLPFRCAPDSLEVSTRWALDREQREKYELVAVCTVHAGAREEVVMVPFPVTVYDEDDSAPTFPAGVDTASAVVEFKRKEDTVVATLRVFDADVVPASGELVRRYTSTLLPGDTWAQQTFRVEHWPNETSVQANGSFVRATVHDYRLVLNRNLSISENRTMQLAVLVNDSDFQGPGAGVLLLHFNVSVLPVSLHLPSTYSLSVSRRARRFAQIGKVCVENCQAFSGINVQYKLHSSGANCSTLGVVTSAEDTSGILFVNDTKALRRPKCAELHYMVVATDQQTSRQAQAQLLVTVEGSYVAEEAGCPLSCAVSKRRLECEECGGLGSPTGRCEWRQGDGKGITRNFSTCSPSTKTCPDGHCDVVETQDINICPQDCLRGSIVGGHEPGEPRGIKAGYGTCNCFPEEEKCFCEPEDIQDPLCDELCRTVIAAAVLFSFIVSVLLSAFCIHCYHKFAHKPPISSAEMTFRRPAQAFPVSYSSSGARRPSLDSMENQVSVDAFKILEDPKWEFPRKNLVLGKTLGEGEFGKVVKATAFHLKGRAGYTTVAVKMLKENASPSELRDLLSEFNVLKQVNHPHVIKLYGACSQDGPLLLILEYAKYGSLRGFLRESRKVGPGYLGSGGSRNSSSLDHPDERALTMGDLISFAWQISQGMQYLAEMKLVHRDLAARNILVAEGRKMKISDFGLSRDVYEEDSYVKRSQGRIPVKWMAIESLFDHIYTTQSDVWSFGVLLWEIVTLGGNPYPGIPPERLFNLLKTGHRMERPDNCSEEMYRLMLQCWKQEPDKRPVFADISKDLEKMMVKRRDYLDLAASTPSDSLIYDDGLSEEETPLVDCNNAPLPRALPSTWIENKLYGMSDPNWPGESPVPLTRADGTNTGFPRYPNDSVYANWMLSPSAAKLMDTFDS

[30] = biological target: Receptor-interacting serine/threonine-protein kinase 2 (Homo sapiens) (UniProt O43353); conditions: Compound concentration 1000.0 nM
[31] = biological target: Ribosomal protein S6 kinase alpha-4 (Homo sapiens) (UniProt O75676); conditions: Compound concentration 1000.0 nM
[32] = biological target: Ribosomal protein S6 kinase alpha-6 (Homo sapiens) (UniProt Q9UK32); conditions: Compound concentration 1000.0 nM
[33] = biological target: SNF-related serine/threonine-protein kinase (Homo sapiens) (UniProt Q9NRH2); conditions: Compound concentration 1000.0 nM
[34] = biological target: Proto-oncogene tyrosine-protein kinase Src (Homo sapiens) (UniProt P12931); conditions: Compound concentration 1000.0 nM
[35] = biological target: Serine/threonine-protein kinase TAO1 (Homo sapiens) (UniProt Q7L7X3); conditions: Compound concentration 1000.0 nM
Serine/threonine-protein kinase TAO1 (Homo sapiens), sequence (Q7L7X3 whole entry): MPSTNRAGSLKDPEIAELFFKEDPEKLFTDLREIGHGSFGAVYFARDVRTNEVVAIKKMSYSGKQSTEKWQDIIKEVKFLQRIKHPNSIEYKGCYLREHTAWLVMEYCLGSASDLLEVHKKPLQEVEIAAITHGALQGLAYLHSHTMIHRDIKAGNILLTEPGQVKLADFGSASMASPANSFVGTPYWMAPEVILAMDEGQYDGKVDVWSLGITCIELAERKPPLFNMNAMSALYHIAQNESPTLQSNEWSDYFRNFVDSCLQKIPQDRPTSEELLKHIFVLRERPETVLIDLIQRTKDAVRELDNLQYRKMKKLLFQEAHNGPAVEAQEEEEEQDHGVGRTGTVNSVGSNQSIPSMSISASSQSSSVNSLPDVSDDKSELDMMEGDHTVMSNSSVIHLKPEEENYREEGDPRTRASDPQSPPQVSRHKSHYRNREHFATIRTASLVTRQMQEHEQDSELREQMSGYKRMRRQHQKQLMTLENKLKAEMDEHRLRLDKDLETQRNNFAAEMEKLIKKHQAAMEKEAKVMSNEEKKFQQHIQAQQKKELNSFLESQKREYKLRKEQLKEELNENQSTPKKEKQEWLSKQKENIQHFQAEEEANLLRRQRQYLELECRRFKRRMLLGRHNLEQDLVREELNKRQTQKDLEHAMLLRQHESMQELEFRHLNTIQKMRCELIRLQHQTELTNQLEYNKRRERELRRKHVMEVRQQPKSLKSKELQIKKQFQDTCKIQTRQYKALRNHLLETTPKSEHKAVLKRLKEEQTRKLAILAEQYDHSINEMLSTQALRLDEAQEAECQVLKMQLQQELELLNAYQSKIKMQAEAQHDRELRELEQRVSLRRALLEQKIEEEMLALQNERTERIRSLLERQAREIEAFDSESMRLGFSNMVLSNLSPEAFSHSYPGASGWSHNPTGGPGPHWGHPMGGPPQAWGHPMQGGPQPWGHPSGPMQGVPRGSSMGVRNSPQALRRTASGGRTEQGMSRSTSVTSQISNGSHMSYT

[36] = biological target: Serine/threonine-protein kinase TBK1 (Homo sapiens) (UniProt Q9UHD2); conditions: Compound concentration 1000.0 nM
[37] = biological target: High affinity nerve growth factor receptor (Homo sapiens) (UniProt P04629); conditions: Compound concentration 1000.0 nM
[38] = biological target: Phosphatidylinositol 3-kinase catalytic subunit type 3 (Homo sapiens) (UniProt Q8NEB9); conditions: Compound concentration 1000.0 nM
Phosphatidylinositol 3-kinase catalytic subunit type 3 (Homo sapiens), sequence (Q8NEB9 whole entry): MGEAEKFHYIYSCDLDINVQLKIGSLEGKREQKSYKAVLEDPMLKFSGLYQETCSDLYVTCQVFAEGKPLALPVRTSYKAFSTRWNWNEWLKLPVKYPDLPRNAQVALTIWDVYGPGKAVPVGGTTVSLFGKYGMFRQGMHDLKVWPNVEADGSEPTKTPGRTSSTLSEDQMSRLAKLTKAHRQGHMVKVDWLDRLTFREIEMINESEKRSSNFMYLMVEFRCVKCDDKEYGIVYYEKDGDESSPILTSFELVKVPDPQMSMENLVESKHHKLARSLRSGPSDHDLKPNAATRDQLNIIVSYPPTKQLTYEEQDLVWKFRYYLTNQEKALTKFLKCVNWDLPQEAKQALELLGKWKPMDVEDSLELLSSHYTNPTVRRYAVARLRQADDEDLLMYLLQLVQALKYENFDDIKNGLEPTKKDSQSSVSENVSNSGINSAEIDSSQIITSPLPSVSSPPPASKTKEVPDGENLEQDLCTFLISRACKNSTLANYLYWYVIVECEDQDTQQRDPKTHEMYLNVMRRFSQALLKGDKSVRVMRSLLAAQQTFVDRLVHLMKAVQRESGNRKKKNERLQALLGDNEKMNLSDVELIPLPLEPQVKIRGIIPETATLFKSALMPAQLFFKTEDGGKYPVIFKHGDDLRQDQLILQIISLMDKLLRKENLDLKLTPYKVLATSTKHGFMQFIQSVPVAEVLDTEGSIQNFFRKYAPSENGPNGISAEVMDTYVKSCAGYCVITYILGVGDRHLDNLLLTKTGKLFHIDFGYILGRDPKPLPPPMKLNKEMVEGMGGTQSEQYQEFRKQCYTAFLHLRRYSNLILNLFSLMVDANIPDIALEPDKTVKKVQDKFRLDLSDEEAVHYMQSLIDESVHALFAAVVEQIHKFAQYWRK

[39] = biological target: Serine/threonine-protein kinase WNK3 (Homo sapiens) (UniProt Q9BYP7); conditions: Compound concentration 1000.0 nM
[40] = biological target: 5-hydroxytryptamine receptor 1E (Homo sapiens) (UniProt P28566); conditions: Compound concentration 10.0 uM
[41] = biological target: 5-hydroxytryptamine receptor 2A (Homo sapiens) (UniProt P28223); conditions: Compound concentration 10.0 uM
[42] = biological target: 5-hydroxytryptamine receptor 5A (Homo sapiens) (UniProt P47898); conditions: Compound concentration 10.0 uM
[43] = biological target: D(1B) dopamine receptor (Homo sapiens) (UniProt P21918); conditions: Compound concentration 10.0 uM
[44] = biological target: Histamine H4 receptor (Homo sapiens) (UniProt Q9H3N8); conditions: Compound concentration 10.0 uM

RAC-alpha serine/threonine-protein kinase (Homo sapiens), sequence (P31749 whole entry): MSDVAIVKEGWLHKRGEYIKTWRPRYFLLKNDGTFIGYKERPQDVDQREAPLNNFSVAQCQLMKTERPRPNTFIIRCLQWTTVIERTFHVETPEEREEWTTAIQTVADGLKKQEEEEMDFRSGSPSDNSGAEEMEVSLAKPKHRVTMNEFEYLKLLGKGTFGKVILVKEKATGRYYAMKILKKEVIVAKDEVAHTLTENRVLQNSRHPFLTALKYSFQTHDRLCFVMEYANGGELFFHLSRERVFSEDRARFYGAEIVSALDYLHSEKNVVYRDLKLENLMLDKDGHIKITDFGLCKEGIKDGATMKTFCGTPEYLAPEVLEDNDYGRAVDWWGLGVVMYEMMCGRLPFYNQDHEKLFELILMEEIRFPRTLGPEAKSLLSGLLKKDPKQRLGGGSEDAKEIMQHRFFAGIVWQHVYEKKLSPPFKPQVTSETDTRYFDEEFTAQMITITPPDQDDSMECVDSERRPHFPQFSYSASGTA

C[C@H](NC(=O)c1cnc2n1[C@](C)(Cc1ccc(C#N)cc1)C(=O)N2c1cc(Cl)c(F)c(Cl)c1)C(=O)NC1(c2ccccn2)CC1 [BI 1950]
active: residual activity [24] 49%
inactive: residual activity [1] 100% | residual activity [2] 100% | residual activity [3] 100% | residual activity [4] 100% | residual activity [5] 100% | residual activity [6] 100% | residual activity [7] 100% | residual activity [8] 100% | residual activity [9] 100% | residual activity [10] 100% | residual activity [11] 100% | residual activity [12] 100% | residual activity [13] 100% | residual activity [14] 100% | residual activity [15] 100% | residual activity [16] 100% | residual activity [17] 100% | residual activity [18] 100% | residual activity [19] 83% | residual activity [20] 100% | residual activity [21] 100% | residual activity [22] 100% | residual activity [23] 98% | residual activity [25] 100% | residual activity [26] 100% | residual activity [27] 100% | residual activity [28] 100% | residual activity [29] 100% | residual activity [30] 68% | residual activity [31] 63% | residual activity [32] 100% | residual activity [33] 100% | residual activity [34] 100% | residual activity [35] 86% | residual activity [36] 97% | residual activity [37] 98% | residual activity [38] 100% | residual activity [39] 78% | inhibition [40] 17.7% | inhibition [41] 9.3% | inhibition [42] 6.14% | inhibition [43] 14% | inhibition [44] 9.55%

C[C@@]1(Cc2ccc(C#N)cc2)C(=O)N(c2cc(Cl)cc(Cl)c2)c2ncc(C(=O)NC3(c4nc(C5CCC5)no4)CC3)n21 [BI 9446]
inactive: residual activity [1] 100% | residual activity [2] 100% | residual activity [3] 100% | residual activity [4] 100% | residual activity [5] 100% | residual activity [6] 100% | residual activity [7] 100% | residual activity [8] 100% | residual activity [9] 99% | residual activity [10] 100% | residual activity [11] 100% | residual activity [12] 100% | residual activity [13] 96% | residual activity [14] 100% | residual activity [15] 100% | residual activity [16] 100% | residual activity [17] 100% | residual activity [18] 100% | residual activity [19] 92% | residual activity [20] 78% | residual activity [21] 85% | residual activity [22] 100% | residual activity [23] 100% | residual activity [25] 100% | residual activity [26] 100% | residual activity [27] 94% | residual activity [28] 86% | residual activity [29] 100% | residual activity [30] 91% | residual activity [31] 95% | residual activity [32] 100% | residual activity [33] 100% | residual activity [34] 98% | residual activity [35] 97% | residual activity [36] 95% | residual activity [37] 100% | residual activity [38] 100% | residual activity [39] 100% | inhibition [40] 31.5% | inhibition [41] 31.9% | inhibition [42] 2.14% | inhibition [43] 7.21% | inhibition [44] 27.6%
active: residual activity [24] 48%
